Data as given in paper PMC4979471 (Cell Death Discovery, 2015).
Like-named read-outs stand apart in the source and are kept apart here.

How the values were obtained:
Experiment in all cases: Kinase selectivity, P33-radiolabeled assay
Assay type in all cases: biochemical
Conditions in all cases: 10 μM ATP
P38a/MAPK14 = molecular target: T1, P38a/MAPK14 (Homo sapiens, UniProt Q16539)
T1 construct: purchased Reaction Biology Corp
How it was run: (§1)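 Reactions contained 10 μM ATP and 10 μM test compound, each run in duplicate. Kinase activity is expressed as a percentage of DMSO-treated controls.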

FLT1/VEGFR1 = molecular target: T2, FLT1/VEGFR1 (Homo sapiens, UniProt P17948)
T2 construct: purchased Reaction Biology Corp
How it was run: as §1

STK32C/YANK3 = molecular target: T3, STK32C/YANK3 (Homo sapiens, UniProt Q86UX6)
T3 construct: purchased Reaction Biology Corp
How it was run: as §1

FLT3 = molecular target: T4, FLT3 (Homo sapiens, UniProt P36888)
T4 construct: purchased Reaction Biology Corp
T4 sequence (P36888 27-993): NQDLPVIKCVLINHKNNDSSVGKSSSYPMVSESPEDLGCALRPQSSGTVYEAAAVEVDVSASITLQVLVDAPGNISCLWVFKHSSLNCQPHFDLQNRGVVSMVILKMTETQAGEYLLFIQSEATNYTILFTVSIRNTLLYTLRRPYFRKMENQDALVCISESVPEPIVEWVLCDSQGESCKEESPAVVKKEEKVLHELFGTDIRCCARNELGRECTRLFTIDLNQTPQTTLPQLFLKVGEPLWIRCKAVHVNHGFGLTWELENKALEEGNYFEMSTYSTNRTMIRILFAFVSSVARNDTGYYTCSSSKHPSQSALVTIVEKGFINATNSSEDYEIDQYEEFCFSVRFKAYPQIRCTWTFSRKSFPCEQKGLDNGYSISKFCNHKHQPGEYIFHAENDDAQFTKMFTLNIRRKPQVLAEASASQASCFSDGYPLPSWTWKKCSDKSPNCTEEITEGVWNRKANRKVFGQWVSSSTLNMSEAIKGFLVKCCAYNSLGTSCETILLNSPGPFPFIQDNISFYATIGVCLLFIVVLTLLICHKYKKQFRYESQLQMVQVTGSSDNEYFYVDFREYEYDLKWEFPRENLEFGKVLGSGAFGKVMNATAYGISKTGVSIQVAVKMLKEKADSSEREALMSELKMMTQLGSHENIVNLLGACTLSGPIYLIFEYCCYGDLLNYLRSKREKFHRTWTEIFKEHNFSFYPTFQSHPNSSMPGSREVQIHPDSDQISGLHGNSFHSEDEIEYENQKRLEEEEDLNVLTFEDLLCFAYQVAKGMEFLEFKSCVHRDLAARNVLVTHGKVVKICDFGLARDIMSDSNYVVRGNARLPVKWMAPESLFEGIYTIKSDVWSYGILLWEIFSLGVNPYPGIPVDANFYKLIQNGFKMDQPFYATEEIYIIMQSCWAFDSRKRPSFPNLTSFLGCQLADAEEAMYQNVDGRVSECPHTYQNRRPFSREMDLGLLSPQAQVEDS
How it was run: as §1

SRPK2 = molecular target: T5, SRPK2 (Homo sapiens, UniProt P78362)
T5 construct: purchased Reaction Biology Corp
How it was run: as §1

p70S6K/RPS6KB1 = molecular target: T6, p70S6K/RPS6KB1 (Homo sapiens, UniProt P23443)
T6 construct: purchased Reaction Biology Corp
How it was run: as §1

RSK1 = molecular target: T7, RSK1 (Homo sapiens, UniProt Q15418)
T7 construct: purchased Reaction Biology Corp
How it was run: as §1

MNK2 = molecular target: T8, MNK2 (Homo sapiens, UniProt Q9HBH9)
T8 construct: purchased Reaction Biology Corp
How it was run: as §1

LYN = molecular target: T9, LYN (Homo sapiens, UniProt P07948)
T9 construct: purchased Reaction Biology Corp
How it was run: as §1

STK38L/NDR2 = molecular target: T10, STK38L/NDR2 (Homo sapiens, UniProt Q9Y2H1)
T10 construct: purchased Reaction Biology Corp
How it was run: as §1

PKG1a = molecular target: T11, PKG1a (Homo sapiens, UniProt Q13976)
T11 construct: purchased Reaction Biology Corp
T11 sequence (Q13976 1-671): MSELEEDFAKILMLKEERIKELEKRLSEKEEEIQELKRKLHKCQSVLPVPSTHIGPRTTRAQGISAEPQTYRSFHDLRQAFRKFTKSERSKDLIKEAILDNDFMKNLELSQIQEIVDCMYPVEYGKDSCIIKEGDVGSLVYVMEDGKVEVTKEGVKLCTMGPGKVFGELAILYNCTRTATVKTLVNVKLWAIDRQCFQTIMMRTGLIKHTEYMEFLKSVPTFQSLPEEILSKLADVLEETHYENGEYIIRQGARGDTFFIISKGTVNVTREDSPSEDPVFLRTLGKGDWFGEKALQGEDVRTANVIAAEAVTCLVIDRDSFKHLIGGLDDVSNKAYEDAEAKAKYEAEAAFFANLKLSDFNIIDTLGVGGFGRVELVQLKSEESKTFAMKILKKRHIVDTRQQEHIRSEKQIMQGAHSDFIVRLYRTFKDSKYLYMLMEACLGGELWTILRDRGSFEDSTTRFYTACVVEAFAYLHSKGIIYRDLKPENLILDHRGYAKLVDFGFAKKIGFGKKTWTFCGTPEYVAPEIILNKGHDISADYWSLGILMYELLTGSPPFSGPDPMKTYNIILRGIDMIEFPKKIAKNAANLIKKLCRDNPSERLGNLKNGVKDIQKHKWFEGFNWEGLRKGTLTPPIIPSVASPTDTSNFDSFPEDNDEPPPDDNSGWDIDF
How it was run: as §1

ERBB2/HER2 = molecular target: T12, ERBB2/HER2 (Homo sapiens, UniProt P04626)
T12 construct: purchased Reaction Biology Corp
How it was run: as §1

PKN3/PRK3 = molecular target: T13, PKN3/PRK3 (Homo sapiens, UniProt Q6P5Z2)
T13 construct: purchased Reaction Biology Corp
How it was run: as §1

CDK6/cyclin D1 = molecular target: T14, CDK6/cyclin D1 (Homo sapiens, UniProt Q00534)
T14 construct: purchased Reaction Biology Corp
How it was run: as §1

[1] = read-out: % Enzyme Activity (relative to DMSO controls) AVG
[2] = read-out: % Enzyme Activity (relative to DMSO controls) Data 1
[3] = read-out: % Enzyme Activity (relative to DMSO controls) Data 2

T8 sequence (Q9HBH9 whole entry): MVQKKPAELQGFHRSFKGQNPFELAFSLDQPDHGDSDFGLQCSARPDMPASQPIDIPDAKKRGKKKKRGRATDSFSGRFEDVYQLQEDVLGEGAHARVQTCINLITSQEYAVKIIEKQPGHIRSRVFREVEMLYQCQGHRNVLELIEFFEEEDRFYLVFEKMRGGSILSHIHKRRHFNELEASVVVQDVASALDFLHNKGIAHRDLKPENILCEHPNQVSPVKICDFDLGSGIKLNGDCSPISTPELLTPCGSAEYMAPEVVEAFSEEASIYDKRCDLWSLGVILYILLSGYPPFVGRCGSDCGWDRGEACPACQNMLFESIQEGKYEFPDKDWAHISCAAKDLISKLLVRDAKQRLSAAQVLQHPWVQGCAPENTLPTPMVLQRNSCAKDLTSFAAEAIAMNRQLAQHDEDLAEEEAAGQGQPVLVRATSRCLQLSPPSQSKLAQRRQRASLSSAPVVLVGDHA
T2 sequence (P17948 27-1338): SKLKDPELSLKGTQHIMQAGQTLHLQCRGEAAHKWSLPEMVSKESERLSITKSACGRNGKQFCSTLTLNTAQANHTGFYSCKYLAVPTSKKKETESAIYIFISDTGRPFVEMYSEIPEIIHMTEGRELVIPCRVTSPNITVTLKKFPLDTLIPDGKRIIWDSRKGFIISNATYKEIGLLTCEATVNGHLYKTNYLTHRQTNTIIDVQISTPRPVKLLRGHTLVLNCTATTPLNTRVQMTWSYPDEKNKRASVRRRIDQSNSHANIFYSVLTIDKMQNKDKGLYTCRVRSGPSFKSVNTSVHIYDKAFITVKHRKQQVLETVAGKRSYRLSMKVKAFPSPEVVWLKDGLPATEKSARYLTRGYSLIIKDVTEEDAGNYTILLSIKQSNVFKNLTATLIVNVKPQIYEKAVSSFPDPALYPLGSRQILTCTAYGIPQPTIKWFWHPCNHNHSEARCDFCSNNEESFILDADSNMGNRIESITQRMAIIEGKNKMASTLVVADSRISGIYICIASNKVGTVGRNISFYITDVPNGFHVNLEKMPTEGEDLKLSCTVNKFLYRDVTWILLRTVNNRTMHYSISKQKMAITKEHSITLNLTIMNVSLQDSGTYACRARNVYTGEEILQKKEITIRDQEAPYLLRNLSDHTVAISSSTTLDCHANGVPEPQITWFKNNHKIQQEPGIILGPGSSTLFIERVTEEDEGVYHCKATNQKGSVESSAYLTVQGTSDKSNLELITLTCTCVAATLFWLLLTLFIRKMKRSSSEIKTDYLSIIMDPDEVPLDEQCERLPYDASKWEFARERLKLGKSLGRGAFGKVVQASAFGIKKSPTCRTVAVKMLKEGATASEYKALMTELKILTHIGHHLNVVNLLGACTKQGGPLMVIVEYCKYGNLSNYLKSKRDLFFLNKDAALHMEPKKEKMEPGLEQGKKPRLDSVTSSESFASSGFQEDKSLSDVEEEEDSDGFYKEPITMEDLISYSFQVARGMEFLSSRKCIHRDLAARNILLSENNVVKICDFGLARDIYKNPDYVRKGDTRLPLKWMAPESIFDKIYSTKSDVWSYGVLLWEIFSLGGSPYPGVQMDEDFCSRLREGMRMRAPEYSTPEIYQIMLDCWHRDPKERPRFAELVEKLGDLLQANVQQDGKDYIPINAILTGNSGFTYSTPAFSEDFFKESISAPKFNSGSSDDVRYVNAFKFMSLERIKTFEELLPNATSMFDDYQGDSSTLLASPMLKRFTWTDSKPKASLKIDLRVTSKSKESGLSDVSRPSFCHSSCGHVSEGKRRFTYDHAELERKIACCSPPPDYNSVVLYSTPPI
T9 sequence (P07948 whole entry): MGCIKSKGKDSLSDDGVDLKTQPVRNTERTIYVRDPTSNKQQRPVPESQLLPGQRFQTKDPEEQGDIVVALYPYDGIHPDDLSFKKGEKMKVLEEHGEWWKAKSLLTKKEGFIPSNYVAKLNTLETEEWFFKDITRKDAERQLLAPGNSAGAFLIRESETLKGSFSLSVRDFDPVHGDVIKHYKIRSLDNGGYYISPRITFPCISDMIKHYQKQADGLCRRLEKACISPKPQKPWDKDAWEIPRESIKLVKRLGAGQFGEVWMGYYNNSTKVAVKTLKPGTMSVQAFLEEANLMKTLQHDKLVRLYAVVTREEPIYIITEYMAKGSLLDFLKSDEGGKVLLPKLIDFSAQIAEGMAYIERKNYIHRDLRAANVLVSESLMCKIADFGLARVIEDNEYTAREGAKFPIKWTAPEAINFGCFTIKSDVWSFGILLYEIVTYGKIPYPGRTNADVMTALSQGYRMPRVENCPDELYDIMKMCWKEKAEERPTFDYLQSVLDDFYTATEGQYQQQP
T10 sequence (Q9Y2H1 whole entry): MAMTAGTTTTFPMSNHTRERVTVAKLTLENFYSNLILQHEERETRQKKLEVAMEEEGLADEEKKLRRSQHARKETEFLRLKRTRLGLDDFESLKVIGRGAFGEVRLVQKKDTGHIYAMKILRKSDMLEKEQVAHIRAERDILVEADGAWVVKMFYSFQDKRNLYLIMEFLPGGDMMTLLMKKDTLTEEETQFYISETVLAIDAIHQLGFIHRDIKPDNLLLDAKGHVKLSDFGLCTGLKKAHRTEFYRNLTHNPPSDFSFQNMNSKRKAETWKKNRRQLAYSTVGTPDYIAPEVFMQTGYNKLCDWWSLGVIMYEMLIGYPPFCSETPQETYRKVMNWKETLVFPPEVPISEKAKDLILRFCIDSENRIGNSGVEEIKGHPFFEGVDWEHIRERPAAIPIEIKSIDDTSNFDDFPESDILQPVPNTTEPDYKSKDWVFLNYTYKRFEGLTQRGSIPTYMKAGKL
T6 sequence (P23443 whole entry): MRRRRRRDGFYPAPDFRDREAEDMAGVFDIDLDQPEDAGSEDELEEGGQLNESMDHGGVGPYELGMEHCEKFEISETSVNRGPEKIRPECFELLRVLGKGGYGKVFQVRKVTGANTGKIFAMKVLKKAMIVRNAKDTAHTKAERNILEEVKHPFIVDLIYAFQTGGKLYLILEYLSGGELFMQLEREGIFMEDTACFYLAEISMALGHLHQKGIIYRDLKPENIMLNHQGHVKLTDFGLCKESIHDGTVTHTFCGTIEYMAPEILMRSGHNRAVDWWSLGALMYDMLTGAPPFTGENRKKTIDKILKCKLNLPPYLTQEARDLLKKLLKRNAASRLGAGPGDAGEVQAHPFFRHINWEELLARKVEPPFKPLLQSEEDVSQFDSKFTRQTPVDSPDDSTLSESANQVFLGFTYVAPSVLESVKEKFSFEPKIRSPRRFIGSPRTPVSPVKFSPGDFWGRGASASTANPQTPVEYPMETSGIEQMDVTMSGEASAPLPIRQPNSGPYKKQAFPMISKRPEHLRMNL
T3 sequence (Q86UX6 whole entry): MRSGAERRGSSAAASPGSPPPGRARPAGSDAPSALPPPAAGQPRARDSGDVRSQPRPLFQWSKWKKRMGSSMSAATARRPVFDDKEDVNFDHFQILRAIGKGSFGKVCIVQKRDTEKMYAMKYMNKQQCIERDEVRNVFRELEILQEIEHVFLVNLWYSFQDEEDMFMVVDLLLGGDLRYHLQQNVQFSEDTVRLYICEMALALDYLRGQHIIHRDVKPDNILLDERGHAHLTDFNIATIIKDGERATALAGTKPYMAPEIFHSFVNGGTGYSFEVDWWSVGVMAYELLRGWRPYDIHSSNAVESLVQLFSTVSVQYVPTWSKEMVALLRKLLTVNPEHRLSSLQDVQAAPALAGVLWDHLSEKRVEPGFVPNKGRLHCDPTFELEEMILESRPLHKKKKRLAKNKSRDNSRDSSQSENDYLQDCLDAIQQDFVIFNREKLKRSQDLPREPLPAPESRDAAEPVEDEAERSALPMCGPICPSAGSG
T7 sequence (Q15418 whole entry): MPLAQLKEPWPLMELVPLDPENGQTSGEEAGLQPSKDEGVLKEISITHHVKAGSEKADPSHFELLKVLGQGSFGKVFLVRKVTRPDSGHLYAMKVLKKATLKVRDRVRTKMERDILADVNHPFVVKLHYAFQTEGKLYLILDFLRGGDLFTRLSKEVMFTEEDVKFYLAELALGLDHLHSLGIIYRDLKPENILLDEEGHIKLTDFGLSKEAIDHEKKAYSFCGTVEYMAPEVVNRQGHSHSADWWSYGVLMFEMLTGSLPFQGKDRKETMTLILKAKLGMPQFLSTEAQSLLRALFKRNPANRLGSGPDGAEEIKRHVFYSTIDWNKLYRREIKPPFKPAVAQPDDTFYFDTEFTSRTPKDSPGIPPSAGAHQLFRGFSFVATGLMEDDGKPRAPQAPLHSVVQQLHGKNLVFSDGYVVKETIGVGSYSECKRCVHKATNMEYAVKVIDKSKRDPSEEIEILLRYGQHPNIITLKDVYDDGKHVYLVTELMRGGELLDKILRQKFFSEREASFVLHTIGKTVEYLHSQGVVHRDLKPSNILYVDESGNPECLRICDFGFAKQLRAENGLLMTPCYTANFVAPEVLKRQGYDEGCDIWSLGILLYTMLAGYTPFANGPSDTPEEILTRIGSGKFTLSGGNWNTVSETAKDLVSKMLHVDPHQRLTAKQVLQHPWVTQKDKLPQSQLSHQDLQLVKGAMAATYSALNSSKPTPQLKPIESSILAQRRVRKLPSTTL
T1 sequence (Q16539 whole entry): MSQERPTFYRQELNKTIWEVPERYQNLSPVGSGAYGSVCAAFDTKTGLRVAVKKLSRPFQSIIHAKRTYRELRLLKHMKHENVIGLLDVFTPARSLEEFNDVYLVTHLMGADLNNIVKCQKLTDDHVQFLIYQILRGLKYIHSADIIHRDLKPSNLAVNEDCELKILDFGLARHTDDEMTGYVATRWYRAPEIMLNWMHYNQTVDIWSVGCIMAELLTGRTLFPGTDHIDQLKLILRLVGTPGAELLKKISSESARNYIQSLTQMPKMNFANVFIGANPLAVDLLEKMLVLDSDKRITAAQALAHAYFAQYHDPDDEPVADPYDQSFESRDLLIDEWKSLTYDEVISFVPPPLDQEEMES

CC(C)(C)C(=O)N1N=CC[C@H]1c1ccccc1 [GSK′963]
remaining activity at 10 µM (P38a/MAPK14; [1]): 94% | remaining activity at 10 µM (P38a/MAPK14; [2]): 92.9% | remaining activity at 10 µM (P38a/MAPK14; [3]): 95.2% | remaining activity at 10 µM (FLT1/VEGFR1; [1]): 107% | remaining activity at 10 µM (FLT1/VEGFR1; [2]): 106% | remaining activity at 10 µM (FLT1/VEGFR1; [3]): 107% | remaining activity at 10 µM (STK32C/YANK3; [1]): 98.9% | remaining activity at 10 µM (STK32C/YANK3; [2]): 97.5% | remaining activity at 10 µM (STK32C/YANK3; [3]): 100% | remaining activity at 10 µM (FLT3; [1]): 101% | remaining activity at 10 µM (FLT3; [2]): 98.7% | remaining activity at 10 µM (FLT3; [3]): 103% | remaining activity at 10 µM (SRPK2; [1]): 102% | remaining activity at 10 µM (SRPK2; [2]): 102% | remaining activity at 10 µM (SRPK2; [3]): 102% | remaining activity at 10 µM (p70S6K/RPS6KB1; [1]): 99.1% | remaining activity at 10 µM (p70S6K/RPS6KB1; [2]): 97.4% | remaining activity at 10 µM (p70S6K/RPS6KB1; [3]): 101% | remaining activity at 10 µM (RSK1; [1]): 126% | remaining activity at 10 µM (RSK1; [2]): 123% | remaining activity at 10 µM (RSK1; [3]): 128% | remaining activity at 10 µM (MNK2; [1]): 109% | remaining activity at 10 µM (MNK2; [2]): 107% | remaining activity at 10 µM (MNK2; [3]): 111% | remaining activity at 10 µM (LYN; [1]): 107% | remaining activity at 10 µM (LYN; [2]): 109% | remaining activity at 10 µM (LYN; [3]): 105% | remaining activity at 10 µM (STK38L/NDR2; [1]): 99.8% | remaining activity at 10 µM (STK38L/NDR2; [2]): 101% | remaining activity at 10 µM (STK38L/NDR2; [3]): 98.1% | remaining activity at 10 µM (PKG1a; [1]): 90% | remaining activity at 10 µM (PKG1a; [2]): 92.4% | remaining activity at 10 µM (PKG1a; [3]): 87.7% | remaining activity at 10 µM (ERBB2/HER2; [1]): 105% | remaining activity at 10 µM (ERBB2/HER2; [2]): 102% | remaining activity at 10 µM (ERBB2/HER2; [3]): 107% | remaining activity at 10 µM (PKN3/PRK3; [1]): 94% | remaining activity at 10 µM (PKN3/PRK3; [2]): 92.9% | remaining activity at 10 µM (PKN3/PRK3; [3]): 95.1% | remaining activity at 10 µM (CDK6/cyclin D1; [1]): 93.7% | remaining activity at 10 µM (CDK6/cyclin D1; [2]): 94.2% | remaining activity at 10 µM (CDK6/cyclin D1; [3]): 93.2%
